Source: ChEMBL document CHEMBL4400506, “8-Hydroxy-2-(1H-1,2,3-triazol-1-yl)-1,4-naphtoquinone derivatives inhibited P2X7 Receptor-Induced dye uptake into murine Macrophages” (Bioorg Med Chem, 2019)
The source made the active and inactive calls. No cut-off for these calls is given here.

Key:
[1] = molecular target: T1, P2X purinoceptor 7 (Mus musculus) (UniProt Q9Z1M0); test: Antagonist activity at P2X7R in Swiss Webster mouse peritoneal macrophages assessed as inhibition of ATP-induced propidium iodide uptake preincubated for 10 mins followed by ATP induction for 25 mins and subsequent propidium iodide addition for last 5 mins by fluorescence microscopic analysis
T1 sequence (whole entry): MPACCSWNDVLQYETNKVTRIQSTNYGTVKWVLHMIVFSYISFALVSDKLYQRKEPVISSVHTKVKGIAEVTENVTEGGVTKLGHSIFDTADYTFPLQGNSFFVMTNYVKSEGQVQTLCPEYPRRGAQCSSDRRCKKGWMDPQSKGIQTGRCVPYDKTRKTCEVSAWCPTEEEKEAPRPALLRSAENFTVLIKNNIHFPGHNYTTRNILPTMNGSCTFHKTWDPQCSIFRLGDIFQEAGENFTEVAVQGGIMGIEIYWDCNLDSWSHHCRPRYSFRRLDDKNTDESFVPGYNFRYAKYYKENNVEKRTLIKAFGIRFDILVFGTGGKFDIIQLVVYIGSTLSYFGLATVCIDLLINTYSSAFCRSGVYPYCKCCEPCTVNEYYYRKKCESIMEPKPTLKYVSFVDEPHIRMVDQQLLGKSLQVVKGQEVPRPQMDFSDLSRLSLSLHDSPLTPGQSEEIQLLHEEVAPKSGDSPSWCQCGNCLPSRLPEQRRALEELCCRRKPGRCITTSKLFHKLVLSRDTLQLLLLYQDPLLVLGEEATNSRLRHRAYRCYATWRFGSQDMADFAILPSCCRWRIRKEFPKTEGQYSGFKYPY

Peritoneal macrophage = test: Cytotoxicity against Swiss Webster mouse peritoneal macrophages assessed as plasma membrane disruption at 100 uM measured after 24 hrs by dextran rhodamine dye based fluorescence assay; format: cell-based
[2] = molecular target: T1, P2X purinoceptor 7 (Mus musculus); test: Antagonist activity at P2X7R in Swiss Webster mouse peritoneal macrophages assessed as inhibition of propidium iodide uptake preincubated for 10 mins propidium iodide addition measured after 5 mins by fluorescence microscopic analysis
[3] = Apparent permeability across apical to basolateral side in human Caco2 cells at 100 uM measured after 60 mins by lucifer yellow staining based fluorescence assay; format: ADME, cell-based; conditions: Caco-2
[4] = Octanol-PBS distribution co-efficient, log D of the compound at 25 mM at pH 7.4 after 2 hrs by shake flask method; format: physicochemical
P2X purinoceptor 7 = molecular target: T2, P2X purinoceptor 7 (Homo sapiens, UniProt Q99572); test: Antagonist activity at human P2X7R expressed in HEK293 cells assessed as inhibition of ATP-induced […] uptake preincubated for 5 mins followed by ATP induction and measured after 25 mins by fluorescence assay; format: cell-based
T2 sequence (Q99572 whole entry): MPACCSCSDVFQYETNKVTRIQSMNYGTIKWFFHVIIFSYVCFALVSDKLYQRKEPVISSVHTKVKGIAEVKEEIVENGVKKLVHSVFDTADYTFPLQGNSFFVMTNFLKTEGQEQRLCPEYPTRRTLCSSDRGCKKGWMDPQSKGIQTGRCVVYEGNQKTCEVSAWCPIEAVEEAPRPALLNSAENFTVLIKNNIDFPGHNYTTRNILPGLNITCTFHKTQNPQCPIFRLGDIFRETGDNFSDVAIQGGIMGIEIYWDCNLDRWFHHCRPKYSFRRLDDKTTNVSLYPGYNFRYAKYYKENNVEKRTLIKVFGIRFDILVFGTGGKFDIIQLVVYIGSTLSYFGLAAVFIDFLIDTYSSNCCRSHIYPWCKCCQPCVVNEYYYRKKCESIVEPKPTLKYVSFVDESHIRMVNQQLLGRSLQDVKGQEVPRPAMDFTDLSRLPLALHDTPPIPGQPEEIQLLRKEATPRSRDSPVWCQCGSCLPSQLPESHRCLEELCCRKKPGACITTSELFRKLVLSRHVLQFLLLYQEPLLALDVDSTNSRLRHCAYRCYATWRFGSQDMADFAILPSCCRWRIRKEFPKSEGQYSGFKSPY

[5] = Intrinsic clearance in mouse liver microsomes assessed per mg protein at 1 uM measured in presence of NADPH; format: ADME, Microsome; conditions: read-out: CLH
[6] = Intrinsic clearance in human liver microsomes assessed per mg protein at 1 uM measured in presence of NADPH; format: ADME, Microsome; conditions: read-out: CLH

Structure (SMILES) | inhibition [1] | inhibition [2] | Papp A→B at 1 h, 100 µM [3] | logD at 2 h, 25000 µM [4] | IC50 (P2X purinoceptor 7) | microsomal CLint at 1 µM [5] | microsomal CLint at 1 µM [6] | Activity (Peritoneal macrophage)
O=C1C=C(n2cc(CCCCl)nn2)C(=O)c2c(O)cccc21 | Active | inactive | 41.6 ×10⁻⁶ cm/s | -0.42 | 103 nM | 3.1 µL/min/mg | 1.2 µL/min/mg | Non-Toxic
O=C1C=C(n2cc(-c3ccccc3)nn2)C(=O)c2c(O)cccc21 | inactive | inactive |  |  |  |  |  | Toxic
CCOc1ccc(Nc2ccc(/C(=C3C=C/C(=[N+](/CC)Cc4cccc(S(=O)(=O)[O-])c4)C=C/3C)c3ccc(N(CC)Cc4cccc(S(=O)(=O)[O-])c4)cc3C)cc2)cc1.[Na+] [BRILLIANT BLUE G] | Active | inactive |  |  | 1370 nM |  |  | Non-Toxic
COc1ccc(CC(=O)NC(N/C(=N/C#N)Nc2cccc3ncccc23)C(C)(C)C)cc1OC (stereo unspecified) | Active | inactive |  |  | 750 nM |  |  | Non-Toxic

The next lines start with results.

inhibition [1] | inhibition [2] | Papp A→B at 1 h, 100 µM [3] | logD at 2 h, 25000 µM [4] | IC50 (P2X purinoceptor 7) | microsomal CLint at 1 µM [5] | microsomal CLint at 1 µM [6] | Structure (SMILES) | Activity (Peritoneal macrophage)
inactive | inactive |  |  |  |  |  | CCCc1cn(C2=CC(=O)c3cccc(O)c3C2=O)nn1 | Toxic
Active | inactive | 71.8 ×10⁻⁶ cm/s | -1.24 | 230 nM | 40.6 µL/min/mg | 46.1 µL/min/mg | CCCCc1cn(C2=CC(=O)c3cccc(O)c3C2=O)nn1 | Non-Toxic
inactive | inactive |  |  |  |  |  | CC(C)CC(C)(O)c1cn(C2=CC(=O)c3cccc(O)c3C2=O)nn1 (stereo unspecified) | Non-Toxic
inactive | inactive |  |  |  |  |  | CCC(C)(O)c1cn(C2=CC(=O)c3cccc(O)c3C2=O)nn1 (stereo unspecified) | Non-Toxic
